Experimental findings from US7494996B2 (priority 2000, dated 2009) are described below.

SMILES strings stand for the structures.

The subject of one experiment is Sphaerotheca fuliginea. As to the kind of experiment: Cucumber Powdery Mildew (CPM) protectant test in the greenhouse. The experiment is classed as in vivo. The following applies: 100 is total disease control, 0 is no disease control; for Cucumber Powdery Mildew (CPM) protectant fungicide data, percent control: 300 g/ha; for pest or weed control at 300 g/ha: Podosphaera fuliginea, topical, 168 h, read-out: Cucumber Powdery Mildew (CPM) protectant fungicide data, percent control. Put shortly: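 Protectant format: one day after spraying with test compound (A/M/W 1:1:2), cotyledon-plus-one-leaf cucumber plants were misted with Sphaerotheca spores at 2×10^5/ml. Greenhouse disease development; percent control scored at day 7 (100 = total, 0 = none).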

Another experiment has as its system Pyricularia oryzae. As to the kind of experiment: whole plant or invertebrate. To be noted: 100 is total disease control, 0 is no disease control; for Rice Blast (RB) protectant fungicide data, percent control: 300 g/ha, greenhouse; for pest or weed control at 300 g/ha: Pyricularia oryzae, topical, 144 h, read-out: Rice Blast (RB) protectant fungicide data, percent control, protectant, 300 g/ha, greenhouse. It is filed as in vivo.

For the compound `O=C1CNC(c2ccc(Cl)cc2)=NN1c1ccccc1` [Compound 28], the “Cucumber Powdery Mildew (CPM) protectant fungicide data, percent control” value (from here on “Cucumber Powdery Mildew … percent control”) in the experiment with Sphaerotheca fuliginea is given as 85 percent control. Moreover, the “Rice Blast (RB) protectant fungicide data, percent control” value (“Rice Blast … percent control” below) in the experiment on Pyricularia oryzae is listed as 85 percent control.

With `CCCCN1N=C(c2ccc(C)c(Cl)c2)NCC1=O` [Compound 294], the “Cucumber Powdery Mildew … percent control” value with Sphaerotheca fuliginea worked out at 80 percent control. For the same compound, the “Rice Blast … percent control” value with Pyricularia oryzae was found to be 100 percent control.

`C=COC(=O)N1CC(=O)N(CCCC)N=C1c1cccc(Cl)c1Cl` [Compound 136]: in the experiment on Sphaerotheca fuliginea, the “Cucumber Powdery Mildew … percent control” value is 80 percent control. In the experiment with Pyricularia oryzae, the “Rice Blast … percent control” value was 100 percent control.

With `CCCCN1N=C(C)NC(c2ccc(F)c(C)c2)C1=O` (stereo not shown) [Compound 94], in the experiment on Sphaerotheca fuliginea, the “Cucumber Powdery Mildew … percent control” value was 75 percent control. The “Rice Blast … percent control” value with Pyricularia oryzae turned out to be 0 percent control.

For `O=C1CNC(c2ccc(Cl)cc2Cl)=NN1CC(F)(F)F` [Compound 73], in the experiment with Sphaerotheca fuliginea, the “Cucumber Powdery Mildew … percent control” value was 75 percent control. The “Rice Blast … percent control” value with Pyricularia oryzae came to 85 percent control.

With `CCCCN1N=C(c2ccc(Cl)c(Cl)c2)N(Cc2ccc(OC)cc2)CC1=O` [Compound 199], the “Cucumber Powdery Mildew … percent control” value in the experiment with Sphaerotheca fuliginea was 0 percent control. The “Rice Blast … percent control” value with Pyricularia oryzae is reported as 90 percent control.

As to `CCCCN1N=C(C)NC(c2cccc(N)c2)C1=O` (stereo not shown) [Compound 78], the “Cucumber Powdery Mildew … percent control” value in the experiment with Sphaerotheca fuliginea was determined as 25 percent control. Also, in the experiment on Pyricularia oryzae, the “Rice Blast … percent control” value is 0 percent control.

With `COC(=O)SN1CC(=O)N(CC(F)(F)F)N=C1c1cc(Cl)cc(Cl)c1` [Compound 292], in the experiment with Sphaerotheca fuliginea, the “Cucumber Powdery Mildew … percent control” value stood at 75 percent control. In addition, the “Rice Blast … percent control” value in the experiment with Pyricularia oryzae is 99 percent control.

Turning to `CCCCN1N=C(c2cccc(C#N)c2)NCC1=O` [Compound 175], in the experiment on Sphaerotheca fuliginea, the “Cucumber Powdery Mildew … percent control” value is 0 percent control. Besides, in the experiment with Pyricularia oryzae, the “Rice Blast … percent control” value was determined as 95 percent control.

As to `CCCCN1N=C(c2ccc(C(F)(F)F)cc2)NCC1=O` [Compound 117], in the experiment with Sphaerotheca fuliginea, the “Cucumber Powdery Mildew … percent control” value stood at 0 percent control. In addition, in the experiment on Pyricularia oryzae, the “Rice Blast … percent control” value stood at 90 percent control.

As to `CCCCN1N=C(c2ccc(F)c(Br)c2)NCC1=O` [Compound 207], the “Cucumber Powdery Mildew … percent control” value with Sphaerotheca fuliginea came to 85 percent control. In addition, in the experiment with Pyricularia oryzae, the “Rice Blast … percent control” value is 100 percent control.

On to `CCOC(=O)N1C(c2cc(Cl)cc(Cl)c2)=NN(CC(F)(F)F)C(=O)C1OC` (stereo not shown) [Compound 214], for which the “Cucumber Powdery Mildew … percent control” value with Sphaerotheca fuliginea worked out at 85 percent control. Besides, the “Rice Blast … percent control” value in the experiment on Pyricularia oryzae came to 50 percent control.

In the case of `CC(=O)CC1NC(c2ccc(Cl)cc2)=NN(CC(F)(F)F)C1=O` (stereo not shown) [Compound 20, 1-(2,2,2-Trifluorethyl)-3-(4-chlorophenyl)-5-(2-propanone)-4,5-dihydro-1,2,4-triazin-6-one], in the experiment on Sphaerotheca fuliginea, the “Cucumber Powdery Mildew … percent control” value is 75 percent control. Moreover, the “Rice Blast … percent control” value in the experiment on Pyricularia oryzae stood at 50 percent control.

Take `O=C1CNC(c2cccc([N+](=O)[O-])c2)=NN1CC(F)(F)F` [Compound 167]: the “Cucumber Powdery Mildew … percent control” value in the experiment on Sphaerotheca fuliginea stood at 0 percent control. In addition, in the experiment with Pyricularia oryzae, the “Rice Blast … percent control” value worked out at 85 percent control.

As to `CSc1ccc(C2=NN(c3cccc(C)c3)C(=O)CN2)cc1` [Compound 187], in the experiment with Sphaerotheca fuliginea, the “Cucumber Powdery Mildew … percent control” value came to 0 percent control. The “Rice Blast … percent control” value with Pyricularia oryzae is 80 percent control.

For the compound `CCCCN1N=C(c2ccc(-c3ccc(C4=NN(CCCC)C(=O)CN4)cc3)cc2)NCC1=O` [Compound 231], the values for the pest or weed control at 300 g/ha in the experiment with Sphaerotheca fuliginea and with Pyricularia oryzae were 0% and 85%, respectively.

On to `CCCCn1nc(-c2cc(C(F)(F)F)cc(C(F)(F)F)c2)ncc1=O` [Compound 288], for which the “Cucumber Powdery Mildew … percent control” value in the experiment on Sphaerotheca fuliginea was found to be 75 percent control. Further, the “Rice Blast … percent control” value with Pyricularia oryzae is reported as 0 percent control.

Consider `O=C1CNC(c2ccccc2F)=NN1CC(F)(F)F` [Compound 96], for which the “Cucumber Powdery Mildew … percent control” value with Sphaerotheca fuliginea was 75 percent control. The “Rice Blast … percent control” value in the experiment on Pyricularia oryzae was 50 percent control.

As to `CCCCN1N=C(c2ccc(OC)cc2)NC(C)C1=O` (stereo not shown) [Compound 38], in the experiment with Sphaerotheca fuliginea, the “Cucumber Powdery Mildew … percent control” value worked out at 50 percent control. In addition, in the experiment with Pyricularia oryzae, the “Rice Blast … percent control” value worked out at 0 percent control.

As to `O=C1CNC(c2ccc(Cl)cc2)=NN1Cc1ccc(Cl)s1` [Compound 62], the “Cucumber Powdery Mildew … percent control” value in the experiment with Sphaerotheca fuliginea turned out to be 0 percent control. Further, the “Rice Blast … percent control” value in the experiment on Pyricularia oryzae is on record as 85 percent control.

With `C=CC1NC(c2ccc(Cl)c(Cl)c2)=NN(CCCC)C1=O` (stereo not shown) [Compound 202], the “Cucumber Powdery Mildew … percent control” value in the experiment on Sphaerotheca fuliginea is reported as 0 percent control. Besides, the “Rice Blast … percent control” value in the experiment on Pyricularia oryzae is 90 percent control.

On to `O=C1C(O)NC(c2ccccn2)=NN1CC(F)(F)F` (stereo not shown) [Compound 53], for which the “Cucumber Powdery Mildew … percent control” value in the experiment on Sphaerotheca fuliginea came to 0 percent control. The “Rice Blast … percent control” value with Pyricularia oryzae was 75 percent control.

Turning to `C[Si](C)(C)CN1N=C(c2ccc(Cl)cc2)NCC1=O` [Compound 61], in the experiment with Sphaerotheca fuliginea, the “Cucumber Powdery Mildew … percent control” value was 50 percent control. In the experiment with Pyricularia oryzae, the “Rice Blast … percent control” value was 85 percent control.

Take `C=CCOC(=O)N1CC(=O)N(CCCC)N=C1c1ccc(Cl)c(Cl)c1` [Compound 170]: the “Cucumber Powdery Mildew … percent control” value in the experiment on Sphaerotheca fuliginea stood at 75 percent control. Also, the “Rice Blast … percent control” value in the experiment with Pyricularia oryzae was determined as 90 percent control.

`CCCCN1N=C(C)NC(c2c(C)cc(C)cc2C)C1=O` (stereo not shown) [Compound 82]: in the experiment with Sphaerotheca fuliginea, the “Cucumber Powdery Mildew … percent control” value came to 25 percent control. Further, in the experiment on Pyricularia oryzae, the “Rice Blast … percent control” value was 0 percent control.

`O=C1CN(CC2CC2)C(c2cccc(F)c2)=NN1CC1CC1` [Compound 222]: the “Cucumber Powdery Mildew … percent control” value with Sphaerotheca fuliginea is 50 percent control. The “Rice Blast … percent control” value in the experiment on Pyricularia oryzae was 0 percent control.

Turning to `Cc1cccc(-n2nc(-c3cccc(Cl)c3)ncc2=O)c1` [Compound 278], the “Cucumber Powdery Mildew … percent control” value with Sphaerotheca fuliginea amounted to 0 percent control. The “Rice Blast … percent control” value in the experiment on Pyricularia oryzae is 85 percent control.

Consider `C=C(C)C1NC(c2ccc(Cl)c(Cl)c2)=NN(CCCC)C1=O` (stereo not shown) [Compound 203], for which the “Cucumber Powdery Mildew … percent control” value in the experiment with Sphaerotheca fuliginea worked out at 0 percent control. Also, the “Rice Blast … percent control” value with Pyricularia oryzae was 85 percent control.

For the compound `Cc1ccc(C2=NN(CC(F)(F)F)C(=O)CN2)cc1Cl` [Compound 293], the “Cucumber Powdery Mildew … percent control” value in the experiment with Sphaerotheca fuliginea turned out to be 50 percent control. The “Rice Blast … percent control” value in the experiment with Pyricularia oryzae is 100 percent control.

In the case of `CCCCN1N=C(c2ccc(Cl)c(Cl)c2)N(CC2CCC2)CC1=O` [Compound 201], in the experiment with Sphaerotheca fuliginea, the “Cucumber Powdery Mildew … percent control” value is listed as 0 percent control. For the same compound, the “Rice Blast … percent control” value with Pyricularia oryzae is recorded as 85 percent control.

As to `O=C1CNC(c2cnc3ccccc3c2)=NN1CC(F)(F)F` [Compound 141], the “Cucumber Powdery Mildew … percent control” value with Sphaerotheca fuliginea is reported as 50 percent control. Moreover, the “Rice Blast … percent control” value with Pyricularia oryzae was 85 percent control.

For `CCCCN1N=C(c2cccc(Br)c2)NCC1=O` [Compound 211], the “Cucumber Powdery Mildew … percent control” value with Sphaerotheca fuliginea is reported as 85 percent control. Further, in the experiment with Pyricularia oryzae, the “Rice Blast … percent control” value is 100 percent control.

On to `O=C1CNC(c2ccc(F)c(F)c2)=NN1Cc1ccccc1` [Compound 139], for which the “Cucumber Powdery Mildew … percent control” value with Sphaerotheca fuliginea was 50 percent control. For the same compound, in the experiment on Pyricularia oryzae, the “Rice Blast … percent control” value is 99 percent control.

In the case of `CCCCN1N=C(C)NC(c2ccc(F)cc2)C1=O` (stereo not shown) [Compound 93], the “Cucumber Powdery Mildew … percent control” value in the experiment with Sphaerotheca fuliginea stood at 75 percent control. Further, the “Rice Blast … percent control” value in the experiment on Pyricularia oryzae was 0 percent control.

Regarding `CCCCCN1N=C(c2ccc(Cl)c(Cl)c2)NCC1=O` [Compound 197], the “Cucumber Powdery Mildew … percent control” value with Sphaerotheca fuliginea is 75 percent control. The “Rice Blast … percent control” value in the experiment on Pyricularia oryzae is given as 99 percent control.

Consider `CCCCN1Nc2c3c(Cl)c(Cl)ccc3cn2CC1=O` [Compound 23, 9,10-Dichloro-2-butyl-1,2,4-triazino[3,4-a]isoindol-3(4H)-one], for which the pest or weed control at 300 g/ha with Sphaerotheca fuliginea is 50%; in the experiment on Pyricularia oryzae it was 0%.

In the case of `C#CCSC(=S)N1CC(=O)N(CCCC)N=C1c1ccc(Cl)c(Cl)c1` [Compound 192], the “Cucumber Powdery Mildew … percent control” value in the experiment with Sphaerotheca fuliginea was determined as 75 percent control. For the same compound, the “Rice Blast … percent control” value in the experiment with Pyricularia oryzae is recorded as 99 percent control.

For the compound `C#CCOC(=O)N1CC(=O)N(CCCC)N=C1c1ccc(Cl)c(Cl)c1` [Compound 171], in the experiment on Sphaerotheca fuliginea, the “Cucumber Powdery Mildew … percent control” value was 50 percent control. In addition, the “Rice Blast … percent control” value in the experiment on Pyricularia oryzae was determined as 80 percent control.

On to `CCCCn1nc(-c2ccc(OC)cc2)ncc1=O` [Compound 244], for which the “Cucumber Powdery Mildew … percent control” value in the experiment with Sphaerotheca fuliginea was determined as 50 percent control. Besides, the “Rice Blast … percent control” value with Pyricularia oryzae came to 100 percent control.

For the compound `O=C1CNC(c2ccc(Cl)c(Cl)c2)=NN1CC1CC1` [Compound 9, 1-Cyclopropylmethyl-3-(3,4-dichlorophenyl)-4,5-dihydro-1,2,4-triazin-6-one], the pest or weed control at 300 g/ha in the experiment on Sphaerotheca fuliginea was 80%; in the experiment with Pyricularia oryzae, 100%.

For `CCCCN1N=C2C=CC(c3ccc(Cl)cc3)=NN2CC1=O` [Compound 229], the pest or weed control at 300 g/ha in the experiment with Sphaerotheca fuliginea stood at 50%; in the experiment with Pyricularia oryzae, 0%.
